Source: publication PMC6199744, “Development of Chemical Proteomics for the Folateome and Analysis of the Kinetoplastid Folateome” (ACS Infectious Diseases, 2018)

What was measured:
Format in all cases: binding
[1] = molecular target: T1, HeLa cell extract proteins (Homo sapiens, UniProt O00303); details: protein EIF3F; HeLa
T1 construct: endogenous in cells; host or cells: HeLa cell extract

[2] = molecular target: T2, HeLa cell extract proteins (Homo sapiens, UniProt O43148); details: HeLa; captured protein RNMT
T2 construct: endogenous in cells; host or cells: HeLa cell extract

[3] = molecular target: T3, HeLa cell extract proteins (Homo sapiens, UniProt O75340); details: HeLa; protein PDCD6 (PROGRAMMED CELL DEATH PROTEIN 6)
T3 construct: endogenous in cells; host or cells: HeLa cell extract

[4] = molecular target: T4, HeLa cell extract proteins (Homo sapiens, UniProt O94822); details: HeLa; captured protein RNF160
T4 construct: endogenous in cells; host or cells: HeLa cell extract

[5] = molecular target: T5, HeLa cell extract proteins (Homo sapiens, UniProt O95714); details: protein HERC2; HeLa
T5 construct: endogenous in cells; host or cells: HeLa cell extract

[6] = molecular target: T6, HeLa cell extract proteins (Homo sapiens, UniProt P10515); details: HeLa; protein DLAT ([…]-RESIDUE ACETYLT[…] OF PYRUVATE DEH[…], MITOCHONDRIAL)
T6 construct: endogenous in cells; host or cells: HeLa cell extract
T6 sequence (P10515 87-647): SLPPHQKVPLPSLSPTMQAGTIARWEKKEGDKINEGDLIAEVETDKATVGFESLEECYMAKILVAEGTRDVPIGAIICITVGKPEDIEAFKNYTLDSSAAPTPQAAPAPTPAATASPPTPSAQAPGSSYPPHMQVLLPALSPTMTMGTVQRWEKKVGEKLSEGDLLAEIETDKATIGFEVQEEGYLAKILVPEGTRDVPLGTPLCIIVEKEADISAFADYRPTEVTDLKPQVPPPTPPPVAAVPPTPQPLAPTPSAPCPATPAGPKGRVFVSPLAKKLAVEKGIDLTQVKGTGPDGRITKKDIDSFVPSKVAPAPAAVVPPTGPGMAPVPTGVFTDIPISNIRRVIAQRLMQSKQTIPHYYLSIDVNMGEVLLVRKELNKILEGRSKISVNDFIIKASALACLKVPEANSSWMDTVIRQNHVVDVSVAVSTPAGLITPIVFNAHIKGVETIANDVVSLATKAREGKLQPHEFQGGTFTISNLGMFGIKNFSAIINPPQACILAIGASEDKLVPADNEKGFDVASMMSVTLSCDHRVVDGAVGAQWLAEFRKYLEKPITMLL

[7] = molecular target: T7, HeLa cell extract proteins (Homo sapiens, UniProt P10809); details: HeLa; protein HSPD1
T7 construct: endogenous in cells; host or cells: HeLa cell extract

[8] = molecular target: T8, HeLa cell extract proteins (Homo sapiens, UniProt P14618); details: HeLa; protein PKM2
T8 construct: endogenous in cells; host or cells: HeLa cell extract

[9] = molecular target: T9, HeLa cell extract proteins (Homo sapiens, UniProt P32119); details: HeLa; captured protein PRDX2
T9 construct: endogenous in cells; host or cells: HeLa cell extract
T9 sequence (P32119 1-198): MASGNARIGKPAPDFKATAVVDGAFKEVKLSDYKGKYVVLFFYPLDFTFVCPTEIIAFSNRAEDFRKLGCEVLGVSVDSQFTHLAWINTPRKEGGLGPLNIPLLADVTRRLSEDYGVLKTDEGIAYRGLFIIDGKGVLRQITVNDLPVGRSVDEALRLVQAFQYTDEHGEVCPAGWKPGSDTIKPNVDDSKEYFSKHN

[10] = molecular target: T10, HeLa cell extract proteins (Homo sapiens, UniProt P35232); details: HeLa; protein PHB
T10 construct: endogenous in cells; host or cells: HeLa cell extract
T10 sequence (P35232 1-272): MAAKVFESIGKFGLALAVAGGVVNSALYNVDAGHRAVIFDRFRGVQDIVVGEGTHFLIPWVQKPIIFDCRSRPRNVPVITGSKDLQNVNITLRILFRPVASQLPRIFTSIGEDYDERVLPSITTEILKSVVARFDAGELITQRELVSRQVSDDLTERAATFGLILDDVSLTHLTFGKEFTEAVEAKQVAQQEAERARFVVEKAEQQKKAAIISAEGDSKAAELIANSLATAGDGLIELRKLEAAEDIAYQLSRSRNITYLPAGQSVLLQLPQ

[11] = molecular target: T11, HeLa cell extract proteins (Homo sapiens, UniProt P37802); details: HeLa; protein TAGLN2
T11 construct: endogenous in cells; host or cells: HeLa cell extract

[12] = molecular target: T12, HeLa cell extract proteins (Homo sapiens, UniProt Q14258); details: HeLa; captured protein TRIM25
T12 construct: endogenous in cells; host or cells: HeLa cell extract

[13] = molecular target: T13, HeLa cell extract proteins (Homo sapiens, UniProt Q16576); details: HeLa; protein RBBP7
T13 construct: endogenous in cells; host or cells: HeLa cell extract

[14] = molecular target: T14, HeLa cell extract proteins (Homo sapiens, UniProt Q3ZCQ8); details: HeLa; protein TIMM50
T14 construct: endogenous in cells; host or cells: HeLa cell extract

[15] = molecular target: T15, HeLa cell extract proteins (Homo sapiens, UniProt Q63HN8); details: HeLa; protein KIAA1618
T15 construct: endogenous in cells; host or cells: HeLa cell extract

[16] = molecular target: T16, HeLa cell extract proteins (Homo sapiens, UniProt Q96P70); details: HeLa; protein IPO9
T16 construct: endogenous in cells; host or cells: HeLa cell extract

[17] = molecular target: T17, HeLa cell extract proteins (Homo sapiens, UniProt Q9BW27); details: protein NUP85; HeLa
T17 construct: endogenous in cells; host or cells: HeLa cell extract
T17 sequence (Q9BW27 1-656): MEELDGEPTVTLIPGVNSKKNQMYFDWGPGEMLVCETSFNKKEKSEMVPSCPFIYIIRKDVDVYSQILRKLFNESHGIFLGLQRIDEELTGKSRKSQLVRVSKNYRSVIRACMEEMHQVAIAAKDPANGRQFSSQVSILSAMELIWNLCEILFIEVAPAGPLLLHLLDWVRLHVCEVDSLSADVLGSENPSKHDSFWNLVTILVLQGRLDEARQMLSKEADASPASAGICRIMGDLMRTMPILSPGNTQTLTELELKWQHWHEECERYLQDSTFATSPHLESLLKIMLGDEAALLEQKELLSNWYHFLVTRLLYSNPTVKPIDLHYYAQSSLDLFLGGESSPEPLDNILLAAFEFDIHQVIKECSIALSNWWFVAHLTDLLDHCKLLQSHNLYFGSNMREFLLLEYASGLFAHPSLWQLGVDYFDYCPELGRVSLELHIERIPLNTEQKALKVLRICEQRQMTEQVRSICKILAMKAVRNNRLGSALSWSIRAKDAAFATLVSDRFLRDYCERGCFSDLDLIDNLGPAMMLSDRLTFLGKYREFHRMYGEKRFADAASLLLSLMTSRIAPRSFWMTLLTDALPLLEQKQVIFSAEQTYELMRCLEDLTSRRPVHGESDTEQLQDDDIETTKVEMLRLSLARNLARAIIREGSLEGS

T3 sequence (O75340 whole entry): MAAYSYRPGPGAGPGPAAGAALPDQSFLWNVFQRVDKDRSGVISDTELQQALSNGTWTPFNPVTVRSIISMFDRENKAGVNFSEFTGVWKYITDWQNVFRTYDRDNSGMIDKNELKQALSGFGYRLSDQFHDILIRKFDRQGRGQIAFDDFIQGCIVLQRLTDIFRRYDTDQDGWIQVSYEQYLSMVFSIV
T12 sequence (Q14258 whole entry): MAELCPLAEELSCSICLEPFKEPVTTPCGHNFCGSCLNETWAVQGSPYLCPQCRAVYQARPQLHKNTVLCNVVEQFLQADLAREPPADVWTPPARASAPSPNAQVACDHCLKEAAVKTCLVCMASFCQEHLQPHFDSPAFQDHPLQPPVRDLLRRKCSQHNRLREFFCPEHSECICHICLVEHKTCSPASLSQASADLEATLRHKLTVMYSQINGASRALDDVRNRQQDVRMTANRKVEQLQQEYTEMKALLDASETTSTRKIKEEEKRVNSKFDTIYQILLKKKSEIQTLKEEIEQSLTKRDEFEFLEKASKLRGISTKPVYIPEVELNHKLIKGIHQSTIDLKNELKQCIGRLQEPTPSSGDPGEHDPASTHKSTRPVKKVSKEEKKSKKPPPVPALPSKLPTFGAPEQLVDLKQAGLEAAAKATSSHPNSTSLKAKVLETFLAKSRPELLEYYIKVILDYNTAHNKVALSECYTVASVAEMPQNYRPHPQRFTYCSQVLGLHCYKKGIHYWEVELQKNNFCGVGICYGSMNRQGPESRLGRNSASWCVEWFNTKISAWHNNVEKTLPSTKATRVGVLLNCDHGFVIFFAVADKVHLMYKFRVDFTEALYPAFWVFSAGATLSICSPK
T4 sequence (O94822 whole entry): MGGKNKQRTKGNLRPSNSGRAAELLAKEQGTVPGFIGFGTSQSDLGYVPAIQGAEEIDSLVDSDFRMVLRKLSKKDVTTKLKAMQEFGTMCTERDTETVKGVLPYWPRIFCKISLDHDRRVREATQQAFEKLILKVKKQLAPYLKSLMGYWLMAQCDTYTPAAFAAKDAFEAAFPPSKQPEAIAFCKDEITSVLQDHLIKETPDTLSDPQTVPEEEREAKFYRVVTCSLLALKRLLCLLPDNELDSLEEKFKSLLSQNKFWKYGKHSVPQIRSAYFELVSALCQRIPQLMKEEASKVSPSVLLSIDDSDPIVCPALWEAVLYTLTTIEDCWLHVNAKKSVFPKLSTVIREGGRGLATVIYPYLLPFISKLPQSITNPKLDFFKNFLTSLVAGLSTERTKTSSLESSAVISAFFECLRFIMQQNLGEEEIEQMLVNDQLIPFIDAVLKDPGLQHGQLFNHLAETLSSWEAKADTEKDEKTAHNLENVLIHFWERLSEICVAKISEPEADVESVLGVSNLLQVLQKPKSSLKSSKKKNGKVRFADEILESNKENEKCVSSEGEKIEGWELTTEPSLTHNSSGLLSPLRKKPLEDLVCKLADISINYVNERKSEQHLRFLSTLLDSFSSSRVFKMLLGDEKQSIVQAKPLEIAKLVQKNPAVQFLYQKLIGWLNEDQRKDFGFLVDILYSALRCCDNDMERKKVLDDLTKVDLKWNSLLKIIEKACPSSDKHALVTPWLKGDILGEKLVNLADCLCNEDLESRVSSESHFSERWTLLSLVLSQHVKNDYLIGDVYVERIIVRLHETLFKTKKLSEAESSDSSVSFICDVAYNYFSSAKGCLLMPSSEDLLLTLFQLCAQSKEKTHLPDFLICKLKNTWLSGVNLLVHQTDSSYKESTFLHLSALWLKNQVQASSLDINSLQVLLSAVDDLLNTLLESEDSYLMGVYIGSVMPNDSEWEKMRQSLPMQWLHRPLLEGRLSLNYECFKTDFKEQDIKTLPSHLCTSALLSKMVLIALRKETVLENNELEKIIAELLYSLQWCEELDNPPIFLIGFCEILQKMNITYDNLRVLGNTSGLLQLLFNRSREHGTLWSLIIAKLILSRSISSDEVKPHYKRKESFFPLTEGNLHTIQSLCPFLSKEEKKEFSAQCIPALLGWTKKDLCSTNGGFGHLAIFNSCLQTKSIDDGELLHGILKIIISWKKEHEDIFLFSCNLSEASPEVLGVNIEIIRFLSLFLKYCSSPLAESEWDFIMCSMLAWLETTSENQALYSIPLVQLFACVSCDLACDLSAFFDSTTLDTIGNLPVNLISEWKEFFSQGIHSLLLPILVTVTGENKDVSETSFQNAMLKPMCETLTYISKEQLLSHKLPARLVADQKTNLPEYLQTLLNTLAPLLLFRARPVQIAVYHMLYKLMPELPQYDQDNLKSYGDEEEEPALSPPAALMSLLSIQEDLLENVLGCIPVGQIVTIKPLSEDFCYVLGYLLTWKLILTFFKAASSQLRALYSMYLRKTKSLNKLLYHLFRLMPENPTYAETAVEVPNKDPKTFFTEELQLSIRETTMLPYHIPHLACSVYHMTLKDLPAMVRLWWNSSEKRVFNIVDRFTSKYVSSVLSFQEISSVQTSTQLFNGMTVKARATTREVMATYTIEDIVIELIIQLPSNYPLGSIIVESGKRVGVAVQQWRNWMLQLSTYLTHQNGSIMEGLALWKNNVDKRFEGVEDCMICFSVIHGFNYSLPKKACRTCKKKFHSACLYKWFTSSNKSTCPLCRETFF
T2 sequence (O43148 whole entry): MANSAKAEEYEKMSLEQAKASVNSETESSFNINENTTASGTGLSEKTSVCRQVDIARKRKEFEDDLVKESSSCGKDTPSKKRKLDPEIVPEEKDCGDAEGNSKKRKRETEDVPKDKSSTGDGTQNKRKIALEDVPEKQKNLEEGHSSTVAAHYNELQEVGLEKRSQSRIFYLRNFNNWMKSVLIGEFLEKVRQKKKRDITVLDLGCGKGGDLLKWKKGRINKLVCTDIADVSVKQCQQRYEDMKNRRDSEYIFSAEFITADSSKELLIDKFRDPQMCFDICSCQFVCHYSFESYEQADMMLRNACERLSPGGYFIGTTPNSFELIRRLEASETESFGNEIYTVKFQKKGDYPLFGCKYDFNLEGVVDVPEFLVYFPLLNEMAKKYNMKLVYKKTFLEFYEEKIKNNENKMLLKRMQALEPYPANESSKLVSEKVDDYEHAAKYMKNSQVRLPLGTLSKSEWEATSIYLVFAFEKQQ
T14 sequence (Q3ZCQ8 45-353): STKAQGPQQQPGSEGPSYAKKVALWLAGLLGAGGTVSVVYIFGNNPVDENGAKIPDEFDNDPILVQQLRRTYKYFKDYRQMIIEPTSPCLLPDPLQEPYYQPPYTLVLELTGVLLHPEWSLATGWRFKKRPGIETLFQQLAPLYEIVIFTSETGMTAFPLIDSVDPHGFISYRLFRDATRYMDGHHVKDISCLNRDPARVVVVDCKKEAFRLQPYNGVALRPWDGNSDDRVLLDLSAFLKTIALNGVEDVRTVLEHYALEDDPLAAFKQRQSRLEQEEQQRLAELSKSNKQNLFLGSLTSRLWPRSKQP
T8 sequence (P14618 whole entry): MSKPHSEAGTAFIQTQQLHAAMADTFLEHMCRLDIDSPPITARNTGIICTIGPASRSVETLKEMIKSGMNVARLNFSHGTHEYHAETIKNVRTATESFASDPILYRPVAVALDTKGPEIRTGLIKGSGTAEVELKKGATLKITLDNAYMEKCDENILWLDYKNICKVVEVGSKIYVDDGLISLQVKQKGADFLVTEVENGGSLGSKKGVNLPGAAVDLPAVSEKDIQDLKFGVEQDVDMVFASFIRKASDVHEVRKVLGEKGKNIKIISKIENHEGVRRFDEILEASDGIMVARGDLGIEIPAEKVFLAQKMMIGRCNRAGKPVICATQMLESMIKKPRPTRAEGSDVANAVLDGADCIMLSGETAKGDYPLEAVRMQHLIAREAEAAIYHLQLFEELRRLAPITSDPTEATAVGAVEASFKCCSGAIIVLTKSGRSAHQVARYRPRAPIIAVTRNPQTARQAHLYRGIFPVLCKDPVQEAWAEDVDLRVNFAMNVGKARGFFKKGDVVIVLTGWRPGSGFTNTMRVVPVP
T11 sequence (P37802 whole entry): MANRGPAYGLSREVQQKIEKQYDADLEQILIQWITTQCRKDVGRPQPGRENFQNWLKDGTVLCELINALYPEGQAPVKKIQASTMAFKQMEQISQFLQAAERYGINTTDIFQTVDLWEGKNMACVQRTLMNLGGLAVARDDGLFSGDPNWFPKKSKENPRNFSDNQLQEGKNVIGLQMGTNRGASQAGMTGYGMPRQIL
T13 sequence (Q16576 whole entry): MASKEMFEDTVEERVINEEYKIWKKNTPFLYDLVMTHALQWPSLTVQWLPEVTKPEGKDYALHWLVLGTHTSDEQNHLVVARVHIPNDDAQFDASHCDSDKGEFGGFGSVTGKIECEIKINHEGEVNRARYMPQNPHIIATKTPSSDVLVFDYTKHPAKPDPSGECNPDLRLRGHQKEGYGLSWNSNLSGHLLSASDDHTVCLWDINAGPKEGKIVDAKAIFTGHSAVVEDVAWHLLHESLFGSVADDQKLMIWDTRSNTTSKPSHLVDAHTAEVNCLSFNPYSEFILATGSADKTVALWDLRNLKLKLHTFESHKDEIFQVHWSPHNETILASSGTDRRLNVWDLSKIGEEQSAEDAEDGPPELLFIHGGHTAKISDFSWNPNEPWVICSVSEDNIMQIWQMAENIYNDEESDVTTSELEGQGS
T1 sequence (O00303 whole entry): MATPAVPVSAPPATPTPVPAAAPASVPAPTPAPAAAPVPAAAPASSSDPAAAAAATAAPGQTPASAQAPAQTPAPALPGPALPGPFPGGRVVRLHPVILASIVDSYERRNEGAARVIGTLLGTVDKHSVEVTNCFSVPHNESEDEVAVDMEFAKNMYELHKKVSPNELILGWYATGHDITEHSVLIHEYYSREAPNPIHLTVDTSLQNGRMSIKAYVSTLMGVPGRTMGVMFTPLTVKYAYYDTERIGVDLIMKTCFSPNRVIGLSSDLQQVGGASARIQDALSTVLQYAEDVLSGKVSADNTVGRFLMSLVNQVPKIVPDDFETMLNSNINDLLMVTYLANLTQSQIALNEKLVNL

**Q.** Which “fold changes relative to vehicle control” value [1] does the source give for Nc1nc2c(c(=O)[nH]1)N(C=O)C(CNc1ccc(C(=O)N[C@@H](CCC(=O)O)C(=O)O)cc1)CN2 (some centres unmarked) [LEU, leucovorin] here?
**A.** The value was 0.95.

**Q.** And the “fold changes relative to vehicle control” value [2]?
**A.** Its value is 0.88.

**Q.** And the “fold changes relative to vehicle control” value [3]?
**A.** Its value is 1.14.

**Q.** And the “fold changes relative to vehicle control” value [4]?
**A.** The value was 1.1.

**Q.** What about the “fold changes relative to vehicle control” value [5] of the same compound?
**A.** The value was 1.09.

**Q.** And the “fold changes relative to vehicle control” value [6]?
**A.** Its value is 1.05.

**Q.** What about the “fold changes relative to vehicle control” value [7] of the same compound?
**A.** The value was 1.12.

**Q.** What about the “fold changes relative to vehicle control” value [8] of the same compound?
**A.** The value was 1.03.

**Q.** And the “fold changes relative to vehicle control” value [9]?
**A.** The value was 1.05.

**Q.** And the “fold changes relative to vehicle control” value [10]?
**A.** Its value is 0.95.

**Q.** What about the “fold changes relative to vehicle control” value [11] of the same compound?
**A.** The value was 0.97.

**Q.** What about the “fold changes relative to vehicle control” value [12] of the same compound?
**A.** Its value is 0.98.

**Q.** And the “fold changes relative to vehicle control” value [13]?
**A.** Its value is 1.05.

**Q.** And the “fold changes relative to vehicle control” value [14]?
**A.** The value was 0.9.

**Q.** What about the “fold changes relative to vehicle control” value [15] of the same compound?
**A.** Its value is 0.87.

**Q.** And the “fold changes relative to vehicle control” value [16]?
**A.** Its value is 0.87.

**Q.** What about the “fold changes relative to vehicle control” value [17] of the same compound?
**A.** The value was 0.82.
